Measured values reported in PubChem BioAssay (NCI).
Where “and” joins values, the source holds several entries; their conditions need not be identical. Identical values can stand only once.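 The compound was tested at five concentrations on cells cultured in 96-well plates, with a 48-hour exposure period. The concentration for 50% growth inhibition is given as GI50. TGI: concentration producing complete growth inhibition.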

These compounds were tested on OVCAR-4 ovarian (assay: NCI anticancer screen, dose series, 48 h).
For `COC(=O)C1=C(c2ccc3c(c2)OCO3)O[C@H](c2cc(OC)c(OC)c(OC)c2)[C@H]1COC(C)=O`, the TGI was > 100 µM. In the case of `Cc1ccc(Cl)cc1Nc1nc(C(F)(F)F)ccc1C(=O)N1CCN(c2ccc(F)cc2)CC1`, the GI50 is reported as 10.8 µM and the TGI is reported as 27.9 µM. In the case of `COc1ccc(OC)c(NC(=O)C(=O)NNC(=O)c2sc(NNC(C)=O)nc2C)c1`, the TGI is reported as 71.2 µM. In the case of `CCCCc1c(OC)cc(O)c2c1C(=O)c1[nH]c(C(=O)O)c(O)c(=O)c1C2=O`, the TGI is reported as > 100 µM. In the case of `O=C(Nc1ccc(OS(=O)(=O)c2ccccc2)cc1)C12CC3CC(CC(C3)C1)C2`, the GI50 is reported as 8.38 µM and the TGI is reported as > 100 µM. For `O=[N+]([O-])c1nccn1CC(O)c1ccc(F)cc1` (stereo not drawn), the TGI was > 100 µM. For `COc1ccc(NC(=O)CCc2cc(-c3ccc(O)c(OC)c3)nc(NC#N)n2)cc1`, the TGI was > 100 µM. For `COC(=O)c1cc2c3ccccc3n(C(C)=O)c2cn1`, the TGI was > 100 µM. In the case of `COc1ccc(N(C)c2ncnc3occ(C)c23)cc1`, the GI50 is reported as < 0.0311 µM and the TGI is reported as > 100 µM. With `COCCOc1cc(F)c2c(Nc3ccc(NC(=O)Cn4cc(C(C)C)nn4)cc3)ncnc2c1` the GI50 was 19.2 µM and the TGI was > 100 µM. For `O=C(c1ccccc1)c1cc(Cl)ccc1OCCCCN1CCN(CCCCOc2ccc(Cl)cc2C(=O)c2ccccc2)CC1`, the GI50 was 6.63 µM and the TGI was 20.5 µM. `Clc1ccc2c(NCCCNc3nccc(Nc4ccc(Br)cc4)n3)ccnc2c1` was tested, and the GI50 was 1.39 µM and the TGI was 2.75 µM. In the case of `Cc1ccccc1N1C(=O)/C(=C/c2ccc(N(CCC#N)CCC#N)cc2)N=C1c1cc([N+](=O)[O-])ccc1Cl`, the TGI is reported as > 100 µM. For `CC(C)=C[C@@H]1C[C@H](C)[C@H]2CC[C@H](C)C3=C2[C@](O)(OC3=O)[C@]1(C)O`, the GI50 was > 100 µM and the TGI was > 100 µM. In the case of `O=c1c2ccccc2[se]n1-c1cccnc1`, the TGI is reported as > 100 µM.

What follows are compounds tested on K-562 leukemia (assay: NCI anticancer screen, dose series, 48 h).
With `O=C(CCCn1ccnc1[N+](=O)[O-])NCCn1cncc1[N+](=O)[O-]` the TGI was > 100 µM. For `Cn1cc(C2=C(c3ccc4ccccc4c3)C(=O)NC2=O)c2ccccc21`, the GI50 was 2.09 µM and the TGI was > 25 µM. Compound `C[As](C)SC1OC(CO)C(O)C1O` (stereo not drawn) has a GI50 of 0.131 µM and a TGI of 2.03 µM. In the case of `CNC(=S)N(C)C(=S)Nn1c(=O)c(C)nn(C)c1=S`, the TGI is reported as > 100 µM. For `CCCCCCCCCC/C=C/CC(=O)SCCNC(=O)CCNC(=O)[C@@H](O)C(C)(C)COP(=O)(O)OP(=O)(O)OCC1OC(n2cnc3c(N)ncnc32)C(O)C1OP(=O)(O)O` (stereo partly drawn), the TGI was > 10 µM. For `Cn1c(=O)c2c(nc(Nc3cc(=O)[nH]c(=O)[nH]3)n2Cc2ccccc2)n(C)c1=O`, the GI50 was 82.5 µM and the TGI was > 100 µM. `COc1ccc2c(c1)CCC1C2CC[C@@]2(C)C1CC1=CC(COC(C)=O)C3C(=O)c4ccccc4C(=O)C3C12` (stereo partly drawn) was tested, and the GI50 was 64.1 µM and the TGI was > 100 µM. `O=C1CCCC/C(=C/c2ccccc2)N1` was tested, and the TGI was > 100 µM. In the case of `O=C1CN=C(C[N+](=O)[O-])c2ccccc21`, the TGI is reported as > 100 µM. `CC/C(=C(/c1ccc(OCCN(C)C)cc1)c1ccc(OC(=O)CCCCC(=O)c2c(C)[nH]c(/C=C3\N=C(c4ccc[nH]4)C=C3OC)c2C)cc1)c1ccccc1` was tested, and the GI50 was 3.16 µM and the TGI was 12.6 µM. With `CC[C@]12C=CCN3CC[C@@]4(c5ccc(OC)cc5N(C)[C@H]4[C@@](O)(C(=O)OC)[C@@H]1OC(=O)CCC[P+](c1ccccc1)(c1ccccc1)c1ccccc1)[C@@H]32` the GI50 was 0.561 µM and 0.421 µM and the TGI was 8.23 µM and 5.98 µM. `CC(=O)OC1Oc2ccccc2-c2oc(=O)c(-c3cc(=O)oc4cc(O)ccc34)cc21` (stereo not drawn) was tested, and the GI50 was 9.45 µM and the TGI was > 100 µM. For `CC(C)(C)C(=O)OCOP(=O)(OCOC(=O)C(C)(C)C)C1CCCN(O)C1=O` (stereo not drawn), the GI50 was 0.393 µM and the TGI was > 100 µM. With `CC(=O)O.CC(=O)O.CC(=O)O.CC(=O)O.CC(=O)O.CC(=O)O.O.[Ti].[Ti]` the GI50 was > 100 µM and the TGI was > 100 µM. `COC(=O)C1=C(c2ccc3c(c2)OCO3)O[C@H](c2cc(OC)c(OC)c(OC)c2)[C@H]1COC(C)=O` was tested, and the TGI was > 100 µM. For `Cc1ccc(Cl)cc1Nc1nc(C(F)(F)F)ccc1C(=O)N1CCN(c2ccc(F)cc2)CC1`, the GI50 was 9.53 µM and the TGI was 30 µM. In the case of `COc1ccc(OC)c(NC(=O)C(=O)NNC(=O)c2sc(NNC(C)=O)nc2C)c1`, the TGI is reported as 43.1 µM. For `CCCCc1c(OC)cc(O)c2c1C(=O)c1[nH]c(C(=O)O)c(O)c(=O)c1C2=O`, the TGI was > 100 µM. In the case of `O=C(Nc1ccc(OS(=O)(=O)c2ccccc2)cc1)C12CC3CC(CC(C3)C1)C2`, the GI50 is reported as 0.576 µM and the TGI is reported as > 100 µM. For `O=[N+]([O-])c1nccn1CC(O)c1ccc(F)cc1` (stereo not drawn), the TGI was > 100 µM. For `COc1ccc(NC(=O)CCc2cc(-c3ccc(O)c(OC)c3)nc(NC#N)n2)cc1`, the TGI was > 100 µM. `COC(=O)c1cc2c3ccccc3n(C(C)=O)c2cn1` was tested, and the TGI was > 100 µM. `COc1ccc(N(C)c2ncnc3occ(C)c23)cc1` was tested, and the GI50 was < 0.01 µM. With `COCCOc1cc(F)c2c(Nc3ccc(NC(=O)Cn4cc(C(C)C)nn4)cc3)ncnc2c1` the GI50 was 10.2 µM and the TGI was > 100 µM. `O=C(c1ccccc1)c1cc(Cl)ccc1OCCCCN1CCN(CCCCOc2ccc(Cl)cc2C(=O)c2ccccc2)CC1` was tested, and the GI50 was 1.9 µM and the TGI was 4.87 µM. With `Cc1ccccc1N1C(=O)/C(=C/c2ccc(N(CCC#N)CCC#N)cc2)N=C1c1cc([N+](=O)[O-])ccc1Cl` the TGI was > 100 µM. With `CC(C)=C[C@@H]1C[C@H](C)[C@H]2CC[C@H](C)C3=C2[C@](O)(OC3=O)[C@]1(C)O` the GI50 was > 100 µM and the TGI was > 100 µM. `O=c1c2ccccc2[se]n1-c1cccnc1` was tested, and the TGI was > 100 µM.

Each compound was assayed on HL-60(TB) leukemia (assay: NCI anticancer screen, dose series, 48 h).
In the case of `O=C(CCCn1ccnc1[N+](=O)[O-])NCCn1cncc1[N+](=O)[O-]`, the TGI is reported as > 100 µM. In the case of `Cn1cc(C2=C(c3ccc4ccccc4c3)C(=O)NC2=O)c2ccccc21`, the GI50 is reported as > 21.4 µM and the TGI is reported as > 25 µM. `C[As](C)SC1OC(CO)C(O)C1O` (stereo not drawn) gave a GI50 of 0.454 µM. In the case of `CNC(=S)N(C)C(=S)Nn1c(=O)c(C)nn(C)c1=S`, the TGI is reported as > 100 µM. With `CCCCCCCCCC/C=C/CC(=O)SCCNC(=O)CCNC(=O)[C@@H](O)C(C)(C)COP(=O)(O)OP(=O)(O)OCC1OC(n2cnc3c(N)ncnc32)C(O)C1OP(=O)(O)O` (stereo partly drawn) the TGI was > 10 µM. In the case of `Cn1c(=O)c2c(nc(Nc3cc(=O)[nH]c(=O)[nH]3)n2Cc2ccccc2)n(C)c1=O`, the GI50 is reported as > 100 µM and the TGI is reported as > 100 µM. In the case of `COc1ccc2c(c1)CCC1C2CC[C@@]2(C)C1CC1=CC(COC(C)=O)C3C(=O)c4ccccc4C(=O)C3C12` (stereo partly drawn), the GI50 is reported as 76.3 µM and the TGI is reported as > 100 µM. `O=C1CCCC/C(=C/c2ccccc2)N1` was tested, and the TGI was > 100 µM. For `O=C1CN=C(C[N+](=O)[O-])c2ccccc21`, the TGI was > 100 µM. With `CC/C(=C(/c1ccc(OCCN(C)C)cc1)c1ccc(OC(=O)CCCCC(=O)c2c(C)[nH]c(/C=C3\N=C(c4ccc[nH]4)C=C3OC)c2C)cc1)c1ccccc1` the GI50 was 18 µM and the TGI was 41.9 µM. With `CC[C@]12C=CCN3CC[C@@]4(c5ccc(OC)cc5N(C)[C@H]4[C@@](O)(C(=O)OC)[C@@H]1OC(=O)CCC[P+](c1ccccc1)(c1ccccc1)c1ccccc1)[C@@H]32` the GI50 was 0.203 µM and 0.195 µM and the TGI was 0.76 µM and 0.518 µM. In the case of `CC(=O)OC1Oc2ccccc2-c2oc(=O)c(-c3cc(=O)oc4cc(O)ccc34)cc21` (stereo not drawn), the GI50 is reported as 21.8 µM and the TGI is reported as > 100 µM. With `CC(C)(C)C(=O)OCOP(=O)(OCOC(=O)C(C)(C)C)C1CCCN(O)C1=O` (stereo not drawn) the GI50 was 0.538 µM and the TGI was 3.53 µM. With `CC(=O)O.CC(=O)O.CC(=O)O.CC(=O)O.CC(=O)O.CC(=O)O.O.[Ti].[Ti]` the GI50 was > 100 µM and the TGI was > 100 µM. Work on `COC(=O)C1=C(c2ccc3c(c2)OCO3)O[C@H](c2cc(OC)c(OC)c(OC)c2)[C@H]1COC(C)=O` yielded a TGI of 32.5 µM. For `Cc1ccc(Cl)cc1Nc1nc(C(F)(F)F)ccc1C(=O)N1CCN(c2ccc(F)cc2)CC1`, the GI50 was 12.7 µM and the TGI was 37.8 µM. `COc1ccc(OC)c(NC(=O)C(=O)NNC(=O)c2sc(NNC(C)=O)nc2C)c1` was tested, and the TGI was 90.3 µM. With `CCCCc1c(OC)cc(O)c2c1C(=O)c1[nH]c(C(=O)O)c(O)c(=O)c1C2=O` the TGI was > 100 µM. For `O=C(Nc1ccc(OS(=O)(=O)c2ccccc2)cc1)C12CC3CC(CC(C3)C1)C2`, the GI50 was 2.68 µM and the TGI was > 100 µM. With `O=[N+]([O-])c1nccn1CC(O)c1ccc(F)cc1` (stereo not drawn) the TGI was > 100 µM. For `COc1ccc(NC(=O)CCc2cc(-c3ccc(O)c(OC)c3)nc(NC#N)n2)cc1`, the TGI was > 100 µM. `COC(=O)c1cc2c3ccccc3n(C(C)=O)c2cn1` was tested, and the TGI was > 100 µM. For `COc1ccc(N(C)c2ncnc3occ(C)c23)cc1`, the GI50 was < 0.01 µM and the TGI was < 0.01 µM. With `COCCOc1cc(F)c2c(Nc3ccc(NC(=O)Cn4cc(C(C)C)nn4)cc3)ncnc2c1` the GI50 was > 100 µM and the TGI was > 100 µM. With `O=C(c1ccccc1)c1cc(Cl)ccc1OCCCCN1CCN(CCCCOc2ccc(Cl)cc2C(=O)c2ccccc2)CC1` the GI50 was 2.3 µM and the TGI was 4.9 µM. `Clc1ccc2c(NCCCNc3nccc(Nc4ccc(Br)cc4)n3)ccnc2c1` was tested, and the GI50 was 2.13 µM and the TGI was 4.94 µM. With `Cc1ccccc1N1C(=O)/C(=C/c2ccc(N(CCC#N)CCC#N)cc2)N=C1c1cc([N+](=O)[O-])ccc1Cl` the TGI was > 100 µM. In the case of `CC(C)=C[C@@H]1C[C@H](C)[C@H]2CC[C@H](C)C3=C2[C@](O)(OC3=O)[C@]1(C)O`, the GI50 is reported as > 100 µM and the TGI is reported as > 100 µM. `O=c1c2ccccc2[se]n1-c1cccnc1` was tested, and the TGI was 91.5 µM.
